From ChEMBL document CHEMBL1201862, “PubChem BioAssay data set” (2004)
Calls of active or inactive are those of the source.

Assays:
[1] = target: Cytochrome P450 2C19 (Homo sapiens, UniProt P33261); test: Cytochrome panel assay with activity outcomes. Panel member name: p450-cyp2c19 Compounds with AC50 equal or less than 10 uM are considered active; type: functional; conditions: read-out: AC50
[2] = target: Cytochrome P450 3A4 (Homo sapiens, UniProt P08684);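 note: CYP3A4 tested as one member of a cytochrome P450 panel screen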
[3] = target: T1, Cytochrome P450 1A2 (Homo sapiens, UniProt P05177)
T1 sequence (P05177 whole entry): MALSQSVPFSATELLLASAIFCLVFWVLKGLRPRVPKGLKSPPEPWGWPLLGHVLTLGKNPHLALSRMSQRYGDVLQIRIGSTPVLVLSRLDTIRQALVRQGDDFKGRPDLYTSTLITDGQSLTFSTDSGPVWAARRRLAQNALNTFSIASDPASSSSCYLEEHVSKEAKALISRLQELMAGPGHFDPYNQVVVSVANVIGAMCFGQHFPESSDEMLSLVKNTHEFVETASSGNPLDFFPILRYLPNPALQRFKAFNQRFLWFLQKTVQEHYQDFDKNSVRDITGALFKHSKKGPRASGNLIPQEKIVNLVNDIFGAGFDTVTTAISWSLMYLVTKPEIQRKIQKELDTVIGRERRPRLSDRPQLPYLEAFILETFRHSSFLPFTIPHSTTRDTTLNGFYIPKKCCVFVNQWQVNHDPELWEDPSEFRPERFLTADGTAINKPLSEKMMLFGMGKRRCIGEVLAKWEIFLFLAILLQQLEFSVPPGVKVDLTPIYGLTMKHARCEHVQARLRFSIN

[4] = target: Cytochrome P450 2C9 (Homo sapiens, UniProt P11712)
[5] = system: H4; test: Luminescence Cell-Based Dose Response HTS to Identify Activators of 5'UTR Stem-Loop Driven Prion Protein mRNA Translation in H4 Neuroglioblastoma Cells. [Related pubchem assays: 1829 (Project Summary), 1814 (Primary HTS)]; type: functional; conditions: Homo sapiens
[6] = Luminescence Cell-Based Dose Response HTS to Identify Activators of Luciferase Translation or Activity in H4 […] Cells. [Related pubchem assays: 1829 (Project Summary), 1814 (Primary HTS)]; type: functional
[7] = Luminescence Cell-Based Dose Confirmation HTS to Identify Activators of 5'UTR Stem-Loop Driven Alpha-Synuclein mRNA Translation in H4 Neuroglioblastoma Cells. [Related pubchem assays: 1829 (Project Summary), 1814 (Primary HTS)]; type: functional
[8] = target: T2, Rac GTPase-activating protein 1 (Homo sapiens, UniProt Q9H0H5); test: blockers of MgcRacGAP-driven Rac1 GTP hydrolysis – biochemical, ADP Hunter fluorescence, primary and confirmatory, confirmation (AID 624330); type: functional
T2 sequence (Q9H0H5 whole entry): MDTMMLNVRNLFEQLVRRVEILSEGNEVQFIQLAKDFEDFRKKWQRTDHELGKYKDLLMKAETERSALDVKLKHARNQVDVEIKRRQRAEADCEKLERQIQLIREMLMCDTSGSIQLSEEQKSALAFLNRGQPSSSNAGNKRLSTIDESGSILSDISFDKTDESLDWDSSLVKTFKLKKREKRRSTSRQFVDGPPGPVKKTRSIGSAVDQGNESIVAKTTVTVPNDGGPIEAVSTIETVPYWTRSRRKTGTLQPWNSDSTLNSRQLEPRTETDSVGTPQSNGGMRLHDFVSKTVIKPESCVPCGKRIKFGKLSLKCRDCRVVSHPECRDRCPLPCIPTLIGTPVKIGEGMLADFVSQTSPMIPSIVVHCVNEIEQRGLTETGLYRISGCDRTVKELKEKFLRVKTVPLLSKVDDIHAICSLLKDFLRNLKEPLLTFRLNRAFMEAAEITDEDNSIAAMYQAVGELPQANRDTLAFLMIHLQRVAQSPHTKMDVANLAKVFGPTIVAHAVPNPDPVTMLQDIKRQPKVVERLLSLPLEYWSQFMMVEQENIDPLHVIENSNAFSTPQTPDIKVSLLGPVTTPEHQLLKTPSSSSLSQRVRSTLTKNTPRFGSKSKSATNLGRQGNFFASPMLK

[9] = target: Cytochrome P450 2D6 (Homo sapiens, UniProt P10635);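 note: CYP2D6 member of a cytochrome P450 panel assay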
[10] = Luminescence Cell-Based Dose Retest to Confirm Inhibitors of Cancer Stem Cells. [Related pubchem assays (depositor defined):AID2717, AID2721]; type: functional; conditions: Homo sapiens

Sequence of Cytochrome P450 2C9 (P11712 whole entry): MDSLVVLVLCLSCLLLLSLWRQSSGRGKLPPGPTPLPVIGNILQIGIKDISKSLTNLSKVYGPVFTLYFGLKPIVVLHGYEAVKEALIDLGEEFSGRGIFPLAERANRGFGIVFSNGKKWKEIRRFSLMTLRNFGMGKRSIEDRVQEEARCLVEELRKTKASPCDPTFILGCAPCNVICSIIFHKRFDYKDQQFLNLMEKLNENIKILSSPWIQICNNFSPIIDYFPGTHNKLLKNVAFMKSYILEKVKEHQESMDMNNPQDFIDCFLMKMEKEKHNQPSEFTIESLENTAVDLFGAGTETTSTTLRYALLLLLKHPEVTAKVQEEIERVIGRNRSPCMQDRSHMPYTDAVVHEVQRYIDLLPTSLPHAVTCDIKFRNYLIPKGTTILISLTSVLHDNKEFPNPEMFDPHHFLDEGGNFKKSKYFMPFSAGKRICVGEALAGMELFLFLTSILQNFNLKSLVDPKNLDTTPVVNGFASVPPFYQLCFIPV
Sequence of Cytochrome P450 2D6 (P10635 whole entry): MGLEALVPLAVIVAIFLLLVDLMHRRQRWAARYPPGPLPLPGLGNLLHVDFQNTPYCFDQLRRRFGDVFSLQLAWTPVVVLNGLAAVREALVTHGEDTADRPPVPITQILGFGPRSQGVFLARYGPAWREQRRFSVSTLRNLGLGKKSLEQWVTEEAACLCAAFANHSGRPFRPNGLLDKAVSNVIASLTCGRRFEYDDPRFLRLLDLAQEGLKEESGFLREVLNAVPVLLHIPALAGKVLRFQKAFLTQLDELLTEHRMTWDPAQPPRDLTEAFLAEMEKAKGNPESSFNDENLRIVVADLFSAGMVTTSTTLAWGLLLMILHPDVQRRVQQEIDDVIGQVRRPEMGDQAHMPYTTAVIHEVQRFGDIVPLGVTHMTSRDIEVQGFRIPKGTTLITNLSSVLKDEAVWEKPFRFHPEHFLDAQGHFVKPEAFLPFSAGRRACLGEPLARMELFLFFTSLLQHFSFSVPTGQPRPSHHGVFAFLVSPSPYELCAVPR
Sequence of Cytochrome P450 3A4 (P08684 whole entry): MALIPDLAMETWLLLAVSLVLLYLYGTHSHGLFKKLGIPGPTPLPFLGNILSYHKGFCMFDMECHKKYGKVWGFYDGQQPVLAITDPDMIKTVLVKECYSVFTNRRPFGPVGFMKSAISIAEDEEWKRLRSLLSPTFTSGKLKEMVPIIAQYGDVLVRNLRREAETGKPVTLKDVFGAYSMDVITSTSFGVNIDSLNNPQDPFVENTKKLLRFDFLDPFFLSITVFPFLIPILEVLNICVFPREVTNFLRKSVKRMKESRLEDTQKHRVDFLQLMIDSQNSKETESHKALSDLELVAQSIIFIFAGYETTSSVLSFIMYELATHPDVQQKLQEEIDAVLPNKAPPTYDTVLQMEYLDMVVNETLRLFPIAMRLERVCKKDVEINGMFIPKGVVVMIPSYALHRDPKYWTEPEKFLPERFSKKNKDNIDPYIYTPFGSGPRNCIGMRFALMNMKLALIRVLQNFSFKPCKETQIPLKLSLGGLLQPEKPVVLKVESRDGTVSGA
Sequence of Cytochrome P450 2C19 (P33261 whole entry): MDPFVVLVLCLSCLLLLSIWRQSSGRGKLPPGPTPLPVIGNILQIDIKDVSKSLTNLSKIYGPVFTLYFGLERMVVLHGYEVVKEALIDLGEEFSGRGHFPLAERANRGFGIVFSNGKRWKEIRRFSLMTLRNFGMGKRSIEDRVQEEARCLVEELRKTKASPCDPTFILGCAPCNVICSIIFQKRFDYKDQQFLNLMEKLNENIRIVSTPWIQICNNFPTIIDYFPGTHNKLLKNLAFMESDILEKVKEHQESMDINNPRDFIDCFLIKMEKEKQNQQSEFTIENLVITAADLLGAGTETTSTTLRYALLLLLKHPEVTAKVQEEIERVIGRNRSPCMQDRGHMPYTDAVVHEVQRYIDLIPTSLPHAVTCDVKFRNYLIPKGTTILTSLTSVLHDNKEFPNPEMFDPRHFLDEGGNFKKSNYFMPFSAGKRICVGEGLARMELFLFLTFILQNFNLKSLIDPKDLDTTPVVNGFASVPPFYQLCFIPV

SMILES	AC50 [3]	AC50 [4]	IC50 [8]	further results
CCCOC(=O)c1c(NC(=O)/C=C/c2cnn(C)c2C)sc(C(=O)OCC)c1C	17.8 µM (inconclusive)	39.8 µM (inconclusive)		AC50 [1]: 10 µM (inconclusive); AC50 [2]: 15.8 µM (inconclusive)
c1ccc(NC2=Nc3ccccc3CC2)cc1				EC50 [5]: > 120 µM (not active); EC50 [6]: 21.1 µM (active); EC50 [7]: 10.9 µM (active)
OCCNCCSc1nc(C2CCCCC2)n(-c2ccccc2Cl)n1			120 µM (active)	
O=C(NCCN1CCOCC1)c1ccc2ccccc2c1	31.6 µM (inconclusive)			AC50 [9]: 15.8 µM (inconclusive)
CCN(CC)S(=O)(=O)c1ccc(C)c(NC(=O)CN2CCN(Cc3ccccc3)CC2)c1			84.8 µM (active)	
CC1Cc2ccccc2N1C(=O)CSc1nnnn1C(C)C (stereo not given)	15.8 µM (inconclusive)	14.1 µM (inconclusive)		AC50 [2]: 15.8 µM (inconclusive)
O=C(Nc1ccnc(-c2cccnc2)n1)c1ccccc1Cl				AC50 [1]: 14.1 µM (inconclusive); AC50 [9]: 11.2 µM (inconclusive)
COC(=O)N1CCC[C@@]2(CCN(C(=O)Nc3cccc(F)c3)C2)C1	15.8 µM (inconclusive)	39.8 µM (inconclusive)		AC50 [2]: 12.6 µM (inconclusive)
Cc1ccc(-c2nc3ncccc3o2)cc1NC(=O)c1ccc([N+](=O)[O-])o1				EC50 [5]: > 120 µM (not active); EC50 [6]: > 120 µM (not active); EC50 [7]: > 120 µM (not active)
CC(=O)Oc1ccc(C#C/C=C2\c3ccccc3C(=O)N2c2ccccc2)cc1				AC50 [10]: 2.25 µM (active)
CCc1nnc(SCc2ccc(OC(C)C)cc2)n1N	15.8 µM (inconclusive)	0.00562 µM (inconclusive)		AC50 [2]: 14.1 µM (inconclusive)
COC(=O)C1=C(N)Oc2cc(C)n(CC3CCCO3)c(=O)c2C1c1ccccc1OC (stereo not given)		28.2 µM (inconclusive)		AC50 [1]: 22.4 µM (inconclusive)
CCOC(=O)c1[nH]c(C(=O)O)c(CCN(CC)CC)c1C	39.8 µM (inconclusive)			AC50 [9]: 3.98 µM (inconclusive)
CC1(C)CCC[C@]2(C)[C@H]3Cc4cc(O)ccc4O[C@]3(C)CC[C@@H]12				AC50 [10]: 4.75 µM (active)
Cc1ccc(C2CC(C(F)(F)F)n3nc(C(=O)NCCN4CCOCC4)cc3N2)cc1 (stereo not given)	1 µM (inconclusive)	12.6 µM (inconclusive)		
COc1ccc(N2CCN(c3nc(Nc4ccc(F)cc4)nc(OC)n3)CC2)cc1	3.16 µM (inconclusive)	3.55 µM (inconclusive)		AC50 [2]: 3.16 µM (inconclusive)
N=C1c2ccccc2CN1NC(=O)c1ccc(F)cc1		17.8 µM (inconclusive)		AC50 [1]: 28.2 µM (inconclusive)
Cn1c(=O)[nH]c(NCCc2ccc(O)cc2)c([N+](=O)[O-])c1=O			219 µM (active)	
COc1cc2c(cc1N)-c1ccc(N)cc1C2=O			12.3 µM (active)	
Cc1sc2ncnc(N/N=C/c3ccc(O)cc3)c2c1C			37.6 µM (active)	
O=C(O)c1cc(N/N=C/c2c(O)ccc3ccccc23)ccc1Cl			35.7 µM (active)	
CC(/C=N/NC(=O)Cc1cccs1)=C\c1ccco1				AC50 [9]: 14.1 µM (inconclusive)
CC/C(=N\O)c1ccc(O)c(OC)c1			45.2 µM (active)	
COc1cc(/C=N\N=C2/SC(CC(=O)O)C(=O)N2c2ccc(O)cc2)ccc1O (stereo not given)			78.1 µM (active)	
CN(C)S(=O)(=O)c1ccc2c(c1)/C(=C/c1cc3c([nH]1)CCCC3)C(=O)N2		10 µM (inconclusive)		AC50 [1]: 7.94 µM (inconclusive); AC50 [9]: 31.6 µM (inconclusive)
CC=C(/C(=C/C)c1ccc(O)cc1)c1ccc(O)cc1 [DIENESTROL]	15.8 µM (inconclusive)			AC50 [9]: 15.8 µM (inconclusive)
